What was measured:
[1] = tested on: spleen cells activated by anti-CD3 and anti-CD28 antibodies; test: IL-2 expression inhibition in spleen cells activated by anti-CD3 and anti-CD28 antibodies (ELISA); format: cell-based, mouse; details: for IL-2 expression inhibitory efficiency compared to WT: 0.5, 1, 2 or 5 μM
Method: The spleen cells activated by anti-CD3 and anti-CD28 antibodies were treated with 1 μM of each of PBS, the dNP2-ctCTLA-4 fusion product and the TAT-ctCTLA-4 fusion product, and IL-2 expression inhibitory efficiency was measured by ELISA and shown in FIG. 5.
First, a 96-well plate was coated at a concentration of 0.1 μg/well with anti-CD3 (anti-mouse CD3) and anti-CD28 (anti-mouse CD28) monoclonal antibodies at 37° C. for 5 hours, spleen cells were isolated from 7-week-old C57BL/6, and the isolated spleen cells were suspended to be single cells. The spleen cells suspended through the process were seeded at 2.5×10^5 on each well coated with anti-CD3 (anti-mouse CD3) and anti-28 (anti-mouse CD28) monoclonal antibodies, and were treated with 1 μM PBS, the dNP2-ctCTLA-4 fusion product and the TAT-ctCTLA-4 fusion product, and then activated for 24 hours.
The spleen cells activated by the anti-CD3 and anti-CD28 antibodies were each treated with the dNP2-ctCTLA-4 fusion product and the dNP2-EGFP fusion product, and IL-2 expression inhibitory efficiency was measured by ELISA and shown in FIG. 6A. At this time, ELISA was conducted using the kit produced by Biolegend Corporation in accordance with the standard protocol provided by the manufacturer. In addition, spleen cells activated by PMA/ionomycin were treated with the dNP2-ctCTLA-4 fusion product and the dNP2-EGFP fusion product, and IL-2 expression inhibitory efficiency was measured by ELISA and is shown in FIG. 6B.
At this time, the activated spleen cells were activated with the anti-CD3/CD28 antibody or PMA/ionomycin in the presence of 1 μM PBS, the dNP2-ctCTLA-4 fusion product or dNP2-EGFP fusion product for 24 hours.
The spleen cells activated by the anti-CD3 and anti-CD28 antibodies were each treated with 0.5, 1, 2 or 5 μM WT, 1YF, 2YF and DYF, and IL-2 expression inhibitory abilities were measured by ELISA and are shown in FIG. 8.
At this time, the activated spleen cells were activated with anti-CD3/CD28 antibody in the presence of 1 μM PBS, 0.5, 1, 2 or 5 μM WT, 1YF, 2YF, DYF for 24 hours.
The spleen cells activated by anti-CD3 and anti-CD28 antibodies were each treated with 0.1, 0.5, 1, 2 or 5 μM dNP2-TAMRA fusion product, dNP2-CTLA-4 fusion product and dNP2-ctCTLA-4-fm3 fusion product, and IL-2 expression inhibitory efficiency was measured by ELISA and is shown in FIG. 11. At this time, the activated spleen cells were activated with the anti-CD3/CD28 antibody in the presence of 1 μM PBS, 0.1, 0.5, 1, 2 or 5 μM dNP2-TAMRA fusion product, dNP2-CTLA-4 fusion product and dNP2-ctCTLA-4-fm3 fusion product for 24 hours.

[2] = tested on: primary mouse CD4-T-cells; test: Intracellular transfer efficiency of ctCTLA-4 peptide and CPP-ctCTLA-4 fusion products in mouse spleen cells; format: cell-based; details: 1 μM, one hour, anti-HA staining
Method: Jurkat T-cells were cultured at a density of 5.0×10^5 cells/well on a 24-well plate in RPMI 1640 medium. After the cells were seeded, respective proteins were added at designated times. After culturing, the cells were collected and washed three times with phosphate buffered saline (PBS). Intracellular fluorescence was analyzed with a fluorescence-activated cell sorting (FACS) Canto II flow cytometer (BD Bioscience) and data were analyzed using FlowJo software (Tree Star, INC.). The spleen isolated from the 6-week-old C57BL/6 mice were loaded on a 60 mm×15 mm cell culture dish containing 3 ml of PBS. A single cell suspension was physically prepared using a cell strainer having pores with a size of […], 10 ml of fresh PBS was added thereto and the resulting mixture was centrifuged. […]
Specifically, the transfer efficiency was measured using “3) In vitro transfer efficiency” in the test method, which will be briefly described below.
Mouse spleen cells were cultured together with 1 μM of a ctCTLA-4 peptide, or a dNP2-ctCTLA-4 or Hph-1-ctCTLA-4 fusion product for one hour, and the ctCTLA-4 peptide or CPP-linked ctCTLA-4 fusion products, which had been transferred into cells, were stained with anti-HA antibodies. […] The cells were harvested and intracellular fluorescence was measured using a flow cytometer to measure ctCTLA-4 protein introduction efficiency in primary mouse CD4-T-cells.

CD4 T-cells = test: Inhibition of CD4 T-cell activation (CD25 expression) in mouse spleen cells (FACS); format: cell-based
Method: The present test was conducted to check whether or not the dNP2-TAMRA, dNP2-ctCTLA-4 fusion product and dNP2-ctCTLA-4-fm3 fusion product according to the present invention could inhibit activation of CD4 T-cells in the mouse model. At this time, CD25 was an activation marker which has an increasing expression level when T-cells were activated, and whether or not activation of CD4 T-cells was inhibited based on the amount of expressed CD25 was determined. Specifically, the test method was as follows.
A 96-well plate was coated with 0.1 μg of anti-CD3 and anti-CD28 antibodies in a cell incubator at 37° C. under […] for 5 hours. Then, isolated spleen cells of mice were seeded in a density of 2.5×10^5 on each well. The cells were treated with PBS or 0.1, 0.5, 1, 2 or 5 μM dNP2-TAMRA, dNP2-ctCTLA-4 or dNP2-ctCTLA-4-Fm, and then cultured in a cell incubator at 37° C. under […] for 24 hours. Then, the cells were stained with APC fluorescence-conjugated anti-CD4 mAb and PE fluorescence-fused anti-CD25 mAb at 4° C. for 20 minutes. Then, the cells produced through the aforementioned process were analyzed by a flow cytometer (FACS) to compare amounts of expressed CD25.

[3] = 0.1, 0.5, 1, 2 or 5 μM, 24 hours

1YF: ctCTLA-4 variant, Y residue of the 1Y part substituted by F (KMLKKRSPLTTGVFVKMPPTEPECEKQFQPYFIPIN; ctCTLA-4 1YF)
IL-2 expression inhibitory efficiency compared to WT ([1]; 24 hours): significant deterioration in IL-2 expression inhibitory efficiency

2YF: ctCTLA-4 variant, Y residue of the 2Y part substituted by F (KMLKKRSPLTTGVYVKMPPTEPECEKQFQPFFIPIN; ctCTLA-4 2YF)
IL-2 expression inhibitory efficiency compared to WT ([1]; 24 hours): significant deterioration in IL-2 expression inhibitory efficiency

DYF: ctCTLA-4 variant, Y residues of both 1Y and 2Y parts substituted by F (KMLKKRSPLTTGVFVKMPPTEPECEKQFQPFFIPIN; ctCTLA-4 DYF)
IL-2 expression inhibitory efficiency compared to WT ([1]; 24 hours): significant deterioration in IL-2 expression inhibitory efficiency

Hph-1-ctCTLA-4: fusion product of cell-penetrating peptide Hph-1 (Sequence ID No. 9) linked to the N-end of ctCTLA-4 peptide (YARVRRRGPRRKMLKKRSPLTTGVYVKMPPTEPECEKQFQPYFIPIN; Hph-1; ctCTLA-4)
intracellular transfer efficiency [2]: further improved

ctCTLA-4-fm1: peptide fragment having an amino acid sequence represented by Sequence ID No. 2 (YVKMPPTEPE; ctCTLA-4 fm1)
IL-2 expression inhibitory effects of ctCTLA-4 fragment peptides [1]: excellent IL-2 expression inhibitory effects

ctCTLA-4-fm2: peptide fragment having an amino acid sequence represented by Sequence ID No. 3 (YFIPIN; ctCTLA-4 fm2)
IL-2 expression inhibitory effects of ctCTLA-4 fragment peptides [1]: excellent IL-2 expression inhibitory effects

ctCTLA-4-fm3: fusion peptide of Sequence ID No. 4, wherein Sequence ID No. 2 is combined with Sequence ID No. 3 (YVKMPPTEPEYFIPIN; ctCTLA-4 fm3)
IL-2 expression inhibitory effects of ctCTLA-4 fragment peptides [1]: excellent IL-2 expression inhibitory effects

ctCTLA-4: peptide of Sequence ID No. 1, 188th to 213th amino acid of the CTLA-4 protein cytoplasmic domain (KMLKKRSPLTTGVYVKMPPTEPECEKQFQPYFIPIN; ctCTLA-4)
intracellular transfer efficiency [2]: excellent intracellular transfer efficiency

dNP2-ctCTLA-4-fm3: fusion product of fusion peptide ctCTLA-4-fm3 (Sequence ID No. 4) and cell-penetrating peptide dNP2 (Sequence ID No. 8) (KIKKVKKKGRKGSKIKKVKKKGRKYVKMPPTEPEYFIPIN; dNP2; ctCTLA-4 fm3)
IL-2 expression inhibition [1, 3]: excellent inhibitory activity against IL-2 expression, comparable to the dNP2-ctCTLA-4 fusion protein
intracellular transfer efficiency (FIG. 10) (CD4 T-cells; 0.1 μM): excellent intracellular transfer efficiency
CD25 expression in CD4 T-cells (CD4 T-cells; [3]): efficacy similar thereto

Source: patent US11351224B2, “Pharmaceutical composition for preventing and treating transplant rejection” (IUCF-HYU (INDUSTRY-UNIVERSITY COOPERATION FOUNDATION …, priority 2015, dated 2022)
